Earlier results on three molecules are cited in patent US20110105488A1, “SUBSTITUTED PYRROLIDINE AND PIPERIDINE COMPOUNDS, DERIVATIVES THEREOF, AND METHODS FOR TREATING PAIN” (Chlorion Pharma, Inc., priority 2008, published 2011).

In data set [1] the test system is patients. The following applies: human, in vivo.
For data set [2], the system named is patients with post-herpetic neuralgia.
Data set [3] relates to clinical trial subjects. The following applies: review of multiple clinical studies.

For the molecule `NC(=O)N1c2ccccc2C=Cc2ccccc21` [carbamazepine], in data set [1], the adverse effects evoked entry is “various sensory deficits”; the “patients with rash and leucopenia” value is about 10%.

Turning to `NCC1(CC(=O)O)CCCCC1` [gabapentin], in data set [2] (8-week trials, mean baseline 6.3), the “mean endpoint pain score” value is on record as 4.2. The decrease in pain in data set [2] (two placebo-controlled, parallel-group trials of 8-weeks duration) is about 33%.

For the molecule `CC(C)C[C@H](CN)CC(=O)O` [pregabalin], the adverse effects evoked entry in data set [3] was “significant somnolence, vertigo, and headache”.
